Test results published in patent US20240180900A1, “COMPOUNDS AND METHODS FOR THE TARGETED DEGRADATION OF ANDROGEN RECEPTOR” (Arvinas Operations, Inc., priority 2022, published 2024).

Test: Phase 1/2 study in mCRPC participants: safety
[1] = all-causality TEAEs, Phase 1, N = 34
[2] = all-causality TEAEs, Phase 2, N = 13

Question: Which results are given for `COc1cc(O[C@H]2C(C)(C)[C@H](NC(=O)c3ccc(N4CCC(CN5CCN(c6ccc(C(=O)N[C@H]7CCC(=O)NC7=O)c(F)c6)CC5)CC4)cc3)C2(C)C)ccc1C#N` [Compound A, 4-(4-((1-(4-(((1R,3R)-3-(4-cyano-3-methoxyphenoxy)-2,2,4,4-tetramethylcyclobutyl)carbamoyl)phenyl)piperidin-4-yl)methyl)piperazin-1-yl)-N—((S)-2,6-dioxopiperidin-3-yl)-2-fluorobenzamide]?
Answer: Fatigue: Grade 5 [1]: 0 participants; Gastrointestinal disorders: Any Grade [1]: 15 participants; Gastrointestinal disorders: Grade 3 [1]: 2 participants; Gastrointestinal disorders: Grade 4 [1]: 0 participants; Gastrointestinal disorders: Grade 5 [1]: 0 participants; General disorders and administration site conditions: Any Grade [1]: 16 participants; General disorders and administration site conditions: Grade 3 [1]: 1 participants; General disorders and administration site conditions: Grade 4 [1]: 0 participants; General disorders and administration site conditions: Grade 5 [1]: 0 participants; Hyponatraemia: Any Grade [1]: 4 participants; Hyponatraemia: Grade 3 [1]: 0 participants; Hyponatraemia: Grade 4 [1]: 0 participants; Hyponatraemia: Grade 5 [1]: 0 participants; Hypophosphataemia: Any Grade [1]: 4 participants; Hypophosphataemia: Grade 3 [1]: 0 participants; Hypophosphataemia: Grade 4 [1]: 0 participants; Hypophosphataemia: Grade 5 [1]: 0 participants; Insomnia: Any Grade [1]: 5 participants; Insomnia: Grade 3 [1]: 0 participants; Insomnia: Grade 4 [1]: 0 participants; Insomnia: Grade 5 [1]: 0 participants; Investigations: Any Grade [1]: 19 participants; Investigations: Grade 3 [1]: 1 participants; Investigations: Grade 4 [1]: 1 participants; Investigations: Grade 5 [1]: 0 participants; Lymphocyte count decreased: Any Grade [1]: 4 participants; Lymphocyte count decreased: Grade 3 [1]: 0 participants; Lymphocyte count decreased: Grade 4 [1]: 1 participants; Lymphocyte count decreased: Grade 5 [1]: 0 participants; Metabolism and nutrition disorders: Any Grade [1]: 15 participants; Metabolism and nutrition disorders: Grade 3 [1]: 1 participants; Metabolism and nutrition disorders: Grade 4 [1]: 0 participants; Metabolism and nutrition disorders: Grade 5 [1]: 0 participants; Nausea: Any Grade [1]: 7 participants; Nausea: Grade 3 [1]: 0 participants; Nausea: Grade 4 [1]: 0 participants; Nausea: Grade 5 [1]: 0 participants; Neutrophil count decreased: Any Grade [1]: 4 participants; Neutrophil count decreased: Grade 3 [1]: 0 participants; Neutrophil count decreased: Grade 4 [1]: 0 participants; Neutrophil count decreased: Grade 5 [1]: 0 participants; Participants with any TEAEs: Any Grade [1]: 33 participants; Participants with any TEAEs: Grade 3 [1]: 10 participants; Participants with any TEAEs: Grade 4 [1]: 2 participants; Participants with any TEAEs: Grade 5 [1]: 1 (2.9) participants; Psychiatric disorders: Any Grade [1]: 7 participants; Psychiatric disorders: Grade 3 [1]: 0 participants; Psychiatric disorders: Grade 4 [1]: 0 participants; Psychiatric disorders: Grade 5 [1]: 0 participants; Rash maculo-papular: Any Grade [1]: 4 participants; Rash maculo-papular: Grade 3 [1]: 0 participants; Rash maculo-papular: Grade 4 [1]: 0 participants; Rash maculo-papular: Grade 5 [1]: 0 participants; Respiratory, thoracic and mediastinal disorders: Any Grade [1]: 6 participants; Respiratory, thoracic and mediastinal disorders: Grade 3 [1]: 2 participants; Respiratory, thoracic and mediastinal disorders: Grade 4 [1]: 0 participants; Respiratory, thoracic and mediastinal disorders: Grade 5 [1]: 0 participants; Skin and subcutaneous tissue disorders: Any Grade [1]: 10 participants; Skin and subcutaneous tissue disorders: Grade 3 [1]: 0 participants; Skin and subcutaneous tissue disorders: Grade 4 [1]: 0 participants; Skin and subcutaneous tissue disorders: Grade 5 [1]: 0 participants; Abdominal pain: Any Grade [2]: 2 participants; Abdominal pain: Grade 3 [2]: 1 participants; Abdominal pain: Grade 4 [2]: 0 participants; Abdominal pain: Grade 5 [2]: 0 participants; Alopecia: Any Grade [2]: 2 participants; Alopecia: Grade 3 [2]: 0 participants; Alopecia: Grade 4 [2]: 0 participants; Alopecia: Grade 5 [2]: 0 participants; Anaemia: Any Grade [2]: 4 participants; Anaemia: Grade 3 [2]: 0 participants; Anaemia: Grade 4 [2]: 0 participants; Anaemia: Grade 5 [2]: 0 participants; Blood alkaline phosphatase increased: Any Grade [2]: 3 participants; Blood alkaline phosphatase increased: Grade 3 [2]: 0 participants; Blood alkaline phosphatase increased: Grade 4 [2]: 0 participants; Blood alkaline phosphatase increased: Grade 5 [2]: 0 participants; Blood and lymphatic system disorders: Any Grade [2]: 4 participants; Blood and lymphatic system disorders: Grade 3 [2]: 0 participants; Blood and lymphatic system disorders: Grade 4 [2]: 0 participants; Blood and lymphatic system disorders: Grade 5 [2]: 0 participants; Diarrhoea: Any Grade [2]: 3 participants; Diarrhoea: Grade 3 [2]: 0 participants; Diarrhoea: Grade 4 [2]: 0 participants; Diarrhoea: Grade 5 [2]: 0 participants; Dysgeusia: Any Grade [2]: 3 participants; Dysgeusia: Grade 3 [2]: 0 participants; Dysgeusia: Grade 4 [2]: 0 participants; Dysgeusia: Grade 5 [2]: 0 participants; Fatigue: Any Grade [2]: 2 participants; Fatigue: Grade 3 [2]: 0 participants; Fatigue: Grade 4 [2]: 0 participants; Fatigue: Grade 5 [2]: 0 participants; Gastrointestinal disorders: Any Grade [2]: 7 participants; Gastrointestinal disorders: Grade 3 [2]: 1 participants; Gastrointestinal disorders: Grade 4 [2]: 0 participants; Gastrointestinal disorders: Grade 5 [2]: 0 participants; General disorders and administration site conditions: Any Grade [2]: 2 participants; General disorders and administration site conditions: Grade 3 [2]: 0 participants; General disorders and administration site conditions: Grade 4 [2]: 0 participants; General disorders and administration site conditions: Grade 5 [2]: 0 participants; Haematuria: Any Grade [2]: 3 participants; Haematuria: Grade 3 [2]: 0 participants; Haematuria: Grade 4 [2]: 0 participants; Haematuria: Grade 5 [2]: 0 participants; Hypertension: Any Grade [2]: 2 participants; Hypertension: Grade 3 [2]: 1 participants; Hypertension: Grade 4 [2]: 0 participants; Hypertension: Grade 5 [2]: 0 participants; Investigations: Any Grade [2]: 5 participants; Investigations: Grade 3 [2]: 0 participants; Investigations: Grade 4 [2]: 0 participants; Investigations: Grade 5 [2]: 0 participants; Nausea: Any Grade [2]: 2 participants; Nausea: Grade 3 [2]: 0 participants; Nausea: Grade 4 [2]: 0 participants; Nausea: Grade 5 [2]: 0 participants; Nervous system disorders: Any Grade [2]: 3 participants; Nervous system disorders: Grade 3 [2]: 0 participants; Nervous system disorders: Grade 4 [2]: 0 participants; Nervous system disorders: Grade 5 [2]: 0 participants; Participants with any TEAEs: Any Grade [2]: 11 participants; Participants with any TEAEs: Grade 3 [2]: 2 participants; Participants with any TEAEs: Grade 4 [2]: 0 participants; Participants with any TEAEs: Grade 5 [2]: 0 participants; Proteinuria: Any Grade [2]: 2 participants; Proteinuria: Grade 3 [2]: 0 participants; Proteinuria: Grade 4 [2]: 0 participants; Proteinuria: Grade 5 [2]: 0 participants; Renal and urinary disorders: Any Grade [2]: 6 participants; Renal and urinary disorders: Grade 3 [2]: 0 participants; Renal and urinary disorders: Grade 4 [2]: 0 participants; Renal and urinary disorders: Grade 5 [2]: 0 participants; Skin and subcutaneous tissue disorders: Any Grade [2]: 2 participants; Skin and subcutaneous tissue disorders: Grade 3 [2]: 0 participants; Skin and subcutaneous tissue disorders: Grade 4 [2]: 0 participants; Skin and subcutaneous tissue disorders: Grade 5 [2]: 0 participants; Vascular disorders: Any Grade [2]: 2 participants; Vascular disorders: Grade 3 [2]: 1 participants; Vascular disorders: Grade 4 [2]: 0 participants; Vascular disorders: Grade 5 [2]: 0 participants; Vomiting: Any Grade [2]: 2 participants; Vomiting: Grade 3 [2]: 0 participants; Vomiting: Grade 4 [2]: 0 participants; Vomiting: Grade 5 [2]: 0 participants; deaths considered related to Compound A (study start until data cut-off): No deaths were considered related to Compound A; deaths reported (study start until data cut-off): Five
